Source: US10316017B2, “COT modulators and methods of use thereof” (Gilead Sciences, Inc., priority 2015, dated 2019)
pEC50, pIC50: −log10 of the molar value.

What was measured:
[1] = tested on: TNFα production in LPS-stimulated human monocytes; assay: Cot Monocyte TNFα Cell Based Assay; conditions: Homo sapiens, Monocyte, TNFα in LPS-stimulated human monocytes; read-out: EC50 TNF
How it was run: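 Percent-of-control values derive from TR-FRET ratios of TNFα in spun-down media, referenced to unstimulated and LPS-stimulated wells. Exposure: 1 h compound preincubation, then 50 pg/ml LPS for 4 h, both at 37 °C, with 0.5% final DMSO.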

[2] = biological target: T1, human Cot catalytic domain (30-397 amino acids) (Homo sapiens, UniProt P41279); assay: High Throughput Cot Biochemical Assay (KinEASE TR-FRET); conditions: Cot KinEASE TR-FRET (HTRF) biochemical assay, 400 μM ATP; read-out: IC50 HTRF
T1 construct: Purified recombinant human Cot catalytic domain (30-397 amino acids) was purchased from Cama Biosciences; purchased Cama Biosciences (so in the source)
How it was run: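 Phosphorylation of 1 μM XL665-STK3 peptide by 5 nM Cot catalytic domain was measured by time-resolved FRET using a europium […] antibody. ATP was 400 μM; buffer was 10 mM MOPS pH 7.0 with Mg2+ and DTT.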

T1 sequence (P41279 30-397): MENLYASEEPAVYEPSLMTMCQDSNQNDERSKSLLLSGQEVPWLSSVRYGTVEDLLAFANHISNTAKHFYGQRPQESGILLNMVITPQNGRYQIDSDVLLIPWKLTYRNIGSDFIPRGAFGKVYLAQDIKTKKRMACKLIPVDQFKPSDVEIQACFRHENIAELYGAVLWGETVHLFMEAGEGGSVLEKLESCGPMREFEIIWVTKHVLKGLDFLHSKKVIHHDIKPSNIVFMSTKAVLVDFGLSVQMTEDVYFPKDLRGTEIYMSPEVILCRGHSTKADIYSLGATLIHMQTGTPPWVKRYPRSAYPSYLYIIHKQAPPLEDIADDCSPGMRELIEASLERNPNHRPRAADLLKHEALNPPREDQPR

| pEC50 [1] | pIC50 [2] | SMILES |
| --- | --- | --- |
| 5.65 | 7.05 | [2H]C(Nc1cc(Cl)c2ncc(C#N)c(NCC(C)(C)C)c2c1)(c1ccc(F)cc1)c1cn(C2CC2)cn1 (centres unmarked) [Example 344, 8-chloro-6-(((1-cyclopropyl-1H-imidazol-4-yl)(4-fluorophenyl)methyl-d)amino)-4-(neopentylamino) quinoline-3-carbonitrile] |
| 6.01 | 7.24 | CC(C)CNc1c(C#N)cnc2c(Cl)cc(N[C@@H](c3ccc(F)cc3)c3cn(C4CC4)nn3)cc12 [Example 345, (S)-8-chloro-6-(((1-cyclopropyl-1H-1,2,3-triazol-4-yl)(4-fluorophenyl)methyl)amino)-4-(isobutylamino)quinoline-3-carbonitrile] |
| 5.21 | 6.47 | N#Cc1cnc2c(Cl)cc(N[C@@H](c3ccc(F)cc3)c3cn(C4CC4)nn3)cc2c1NCc1cncs1 [Example 346, (S)-8-chloro-6-(((1-cyclopropyl-1H-1,2,3-triazol-4-yl)(4-fluorophenyl)methyl)amino)-4-((thiazol-5-ylmethyl)amino)quinoline-3-carbonitrile] |
| 6.11 | 7.62 | N#Cc1cnc2c(Cl)cc(N[C@@H](c3ccc(F)cc3)c3cn(C4CC4)nn3)cc2c1NC(CC(F)(F)F)c1ccccc1 (stereo partly drawn) [Example 347, 8-chloro-6-(((S)-(1-cyclopropyl-1H-1,2,3-triazol-4-yl)(4-fluorophenyl)methyl)amino)-4-((3,3,3-trifluoro-1-phenylpropyl)amino)quinoline-3-carbonitrile] |
| 5.92 | 7.36 | N#Cc1cnc2c(Cl)cc(N[C@@H](c3ccc(F)cc3)c3cn(C4CC4)nn3)cc2c1NCC1CCCOC1 (stereo partly drawn) [Example 348, 8-chloro-6-(((S)-(1-cyclopropyl-1H-1,2,3-triazol-4-yl)(4-fluorophenyl)methyl)amino)-4-(((tetrahydro-2H-pyran-3-yl)methyl)amino)quinoline-3-carbonitrile] |
| 6.16 | 6.88 | CC(F)(F)CNc1c(C#N)cnc2c(Cl)cc(N[C@@H](c3ccc(F)cc3)c3cn(C4CC4)nn3)cc12 [Example 349, (S)-8-chloro-6-(((1-cyclopropyl-1H-1,2,3-triazol-4-yl)(4-fluorophenyl)methyl)amino)-4-((2,2-difluoropropyl)amino)quinoline-3-carbonitrile] |
| 6.41 | 8.05 | CC(C)(CNc1c(C#N)cnc2c(Cl)cc(N[C@@H](c3ccc(F)cc3)c3cn(C4CC4)nn3)cc12)c1ccccc1 [Example 350, (S)-8-chloro-6-(((1-cyclopropyl-1H-1,2,3-triazol-4-yl)(4-fluorophenyl)methyl)amino)-4-((2-methyl-2-phenylpropyl)amino) quinoline-3-carbonitrile] |
| 6.69 | 8.22 | [2H][C@](Nc1cc(C#N)c2ncc(C#N)c(Nc3cnc(F)c(F)c3)c2c1)(c1ccc(F)cc1)c1cn(C2CC2)nn1 [Example 351, (S)-6-(((1-cyclopropyl-1H-1,2,3-triazol-4-yl)(4-fluorophenyl)methyl-d)amino)-4-((5,6-difluoropyridin-3-yl)amino)quinoline-3,8-dicarbonitrile] |
| 5.89 | 7.68 | [2H][C@](Nc1cc(Cl)c2ncc(C#N)c(Nc3cnc(F)c(F)c3)c2c1)(c1ccc(F)cc1)c1c[nH]nn1 [Example 352, (S)-8-chloro-4-((5,6-difluoropyridin-3-yl)amino)-6-(((4-fluorophenyl) (1H-1,2,3-triazol-4-yl)methyl-d)amino) quinoline-3-carbonitrile] |
| 5.50 | 6.98 | N#Cc1cnc2c(Cl)cc(N[C@@H](c3ccc(F)cc3)c3c[nH]nn3)cc2c1Nc1cncc(F)c1 [Example 353, (S)-8-chloro-6-(((4-fluorophenyl)(1H-1,2,3-triazol-4-yl)methyl)amino)-4-((5-fluoropyridin-3-yl)amino)quinoline-3-carbonitrile] |
| 6.16 | 7.07 | [2H]C(Nc1cc(Cl)c2ncc(C#N)c(N[C@H](CC)c3ccccc3)c2c1)(c1ccc(F)cc1)c1cn(C2CC2)cn1 (stereo partly drawn) [Example 354, 8-chloro-6-(((1-cyclopropyl-1H-imidazol-4-yl)(4-fluorophenyl)methyl-d)amino)-4-(((R)-1-phenylpropyl)amino) quinoline-3-carbonitrile] |
| 5.33 | 6.92 | [2H]C(Nc1cc(Cl)c2ncc(C#N)c(Nc3cnc(F)c(F)c3)c2c1)(c1ccc(F)cc1)c1cn(C2CC2)cn1 (centres unmarked) [Example 355, 8-chloro-6-(((1-cyclopropyl-1H-imidazol-4-yl)(4-fluorophenyl)methyl-d)amino)-4-((5,6-difluoropyridin-3-yl)amino)quinoline-3-carbonitrile] |
| 5.18 | 6.26 | [2H][C@@](Nc1cc(Cl)c2ncc(C#N)c(NC3(c4ccccc4)CC3)c2c1)(c1cn(C2CC2)nn1)c1ccccc1Cl [Example 356] |
| 6.28 | 7.70 | [2H][C@@](Nc1cc(Cl)c2ncc(C#N)c(N[C@H](CC)c3ccccc3)c2c1)(c1cn(C2CC2)nn1)c1ccccc1Cl [Example 357, 8-chloro-6-(((S)-(2-chlorophenyl)(1-cyclopropyl-1H-1,2,3-triazol-4-yl)methyl-d)amino)-4-(((R)-1-phenylpropyl)amino) quinoline-3-carbonitrile] |
| 6.17 | 7.92 | [2H][C@@](Nc1cc(Cl)c2ncc(C#N)c(Nc3cnc(F)c(F)c3)c2c1)(c1cn(C2CC2)nn1)c1ccccc1Cl [Example 358, (S)-8-chloro-6-(((2-chlorophenyl)(1-cyclopropyl-1H-1,2,3-triazol-4-yl)methyl-d)amino)-4-((5,6-difluoropyridin-3-yl)amino)quinoline-3-carbonitrile] |
| 5.65 | 7.28 | [2H][C@](Nc1cc(Cl)c2ncc(C#N)c(Nc3cnc(F)c(F)c3)c2c1)(c1ccc(F)cc1)c1cn(C2CS(=O)(=O)C2)nn1 [Example 359, (S)-8-chloro-4-((5,6-difluoropyridin-3-yl)amino)-6-(((1-(1,1-dioxidothietan-3-yl)-1H-1,2,3-triazol-4-yl)(4-fluorophenyl)methyl-d)amino)quinoline-3-carbonitrile] |
| 6.37 | 7.68 | [2H][C@](Nc1cc(Cl)c2ncc(C#N)c(Nc3cnc(F)c(F)c3)c2c1)(c1ccc(F)cc1)c1cn([C@@H](C)CF)nn1 [Example 360, 8-chloro-4-((5,6-difluoropyridin-3-yl)amino)-6-(((S)-(4-fluorophenyl)(1-((S)-1-fluoropropan-2-yl)-1H-1,2,3-triazol-4-yl)methyl-d)amino)quinoline-3-carbonitrile] |
| 7.08 | 8.30 | CC(C)n1cc([C@@H](Nc2cc(Cl)c3ncc(C#N)c(NC(CC#N)c4ccccc4)c3c2)c2ccc(F)cc2)nn1 (stereo partly drawn) [Example 362, 8-chloro-4-((2-cyano-1-phenylethyl)amino)-6-(((S)-(4-fluorophenyl)(1-isopropyl-1H-1,2,3-triazol-4-yl)methyl)amino)quinoline-3-carbonitrile] |
| < 5.00 | 6.06 | CC(C)n1cc([C@@H](Nc2cc(Cl)c3ncc(C#N)c(N[C@H](c4ccccc4)C(F)(F)F)c3c2)c2ccc(F)cc2)nn1 [Example 363, 8-chloro-6-(((S)-(4-fluorophenyl)(1-isopropyl-1H-1,2,3-triazol-4-yl)methyl)amino)-4-(((R)-2,2,2-trifluoro-1-phenylethyl)amino)quinoline-3-carbonitrile] |
